Experimental data as given in patent publication US5627181A, “6-membered nitrogen-containing heteroaryl-oxazolidinones” (Bayer Aktiengesellschaft, priority 1994, dated 1997).
≈ marks a conversion by molar mass, not a printed value.

Assays:
Type in all cases: cell-based
Staph. 133 = test: MIC values, Staph. 133; details: 37° C., about 20 hours
Protocol: (§1) The minimum inhibitory concentrations (MIC) were determined by the series dilution method on Iso-Sensitest agar (Oxoid). A series of agar plates which contained concentrations of the active compound which decreased by two-fold dilution in each case were prepared for each test substance. The agar plates were inoculated with a Multipoint inoculator (Denley). Overnight cultures of the pathogens which had been diluted beforehand such that each inoculation point contained about 10^4 colony-forming particles were used for the inoculation. The inoculated agar plates were incubated at 37° C. and the germ growth was read off after about 20 hours. The MIC value (μg/ml) indicates the lowest concentration of active compound at which no growth was detectable with the naked eye.
(§2) The MIC values were determined with the aid of the microdilution method in BH medium. Each test substance was dissolved in the nutrient medium. A concentration series of the test substances was prepared in the microtiter plate by serial dilution. Overnight cultures of the pathogens which were diluted 1:250 beforehand in the nutrient medium were used for the inoculation. In each case 100 μl of inoculation solution were added to 100 μl of the diluted nutrient solutions containing the active compound.

Staph. 48N = test: MIC values, Staph. 48N; details: 37° C., about 20 hours
Protocol: as §1, §2

E. coli Neumann = test: MIC values, E. coli Neumann; details: Escherichia coli, 37° C., about 20 hours
Protocol: as §1, §2

Klebs. 57 USA = test: MIC values, Klebs. 57 USA; details: 37° C., about 20 hours
Protocol: as §1, §2

Staph. 9TV = test: MIC values, Staph. 9TV; details: 37° C., about 20 hours
Protocol: as §1, §2

Staph 25701 = test: MIC values, Staph 25701; details: 37° C., about 20 hours
Protocol: as §1, §2

Psdm. Bonn = test: MIC values, Psdm. Bonn; details: 37° C., about 20 hours
Protocol: as §1, §2

Compound | MIC (Staph. 133) | MIC (Staph. 48N) | MIC (E. coli Neumann) | MIC (Klebs. 57 USA) | MIC (Staph. 9TV) | MIC (Staph 25701) | MIC (Psdm. Bonn)
CC(=O)NC[C@H]1CN(c2ccc3ncccc3c2)C(=O)O1 [Example 29] | 8 µg/mL (≈ 28 µM) | 8 µg/mL (≈ 28 µM) | > 64 µg/mL | > 64 µg/mL | 8 µg/mL (≈ 28 µM) | 8 µg/mL (≈ 28 µM) | 
CC(=O)NC[C@H]1CN(c2ccc(-c3ccc(C)cc3)cn2)C(=O)O1 [Example 36, (5S)-3-[5-(4-Methylphenyl)pyridin-2-yl]-5-acetyl-aminomethyl-oxazolidin-2-one] | 4 µg/mL (≈ 12.3 µM) | 4 µg/mL (≈ 12.3 µM) | > 32 µg/mL | > 32 µg/mL | 1 µg/mL (≈ 3.07 µM) | 4 µg/mL (≈ 12.3 µM) | > 32 µg/mL
CC(=O)NC[C@H]1CN(c2ccc(-c3ccccc3)cn2)C(=O)O1 [Example 37] | 1 µg/mL (≈ 3.21 µM) | 1 µg/mL (≈ 3.21 µM) | > 32 µg/mL | > 32 µg/mL | 0.5 µg/mL (≈ 1.61 µM) | 1 µg/mL (≈ 3.21 µM) | > 32 µg/mL
CC(=O)NC[C@H]1CN(c2ccc(-c3ccccc3C=O)cn2)C(=O)O1 [Example 38] | 4 µg/mL (≈ 11.8 µM) | 4 µg/mL (≈ 11.8 µM) | > 32 µg/mL | > 32 µg/mL | 2 µg/mL (≈ 5.89 µM) | 8 µg/mL (≈ 23.6 µM) | > 32 µg/mL
CC(=O)NC[C@H]1CN(c2ccc(-c3cccc(C=O)c3)cn2)C(=O)O1 [Example 39] | 0.25 µg/mL (≈ 0.737 µM) | 0.5 µg/mL (≈ 1.47 µM) | > 32 µg/mL | > 32 µg/mL | 0.125 µg/mL (≈ 0.368 µM) | 0.5 µg/mL (≈ 1.47 µM) | > 32 µg/mL
CC(=O)NC[C@H]1CN(c2ccc(-c3ccc(C=O)cc3)cn2)C(=O)O1 [Example 40] | 1 µg/mL (≈ 2.95 µM) | 1 µg/mL (≈ 2.95 µM) | > 32 µg/mL | > 32 µg/mL | 0.5 µg/mL (≈ 1.47 µM) | 1 µg/mL (≈ 2.95 µM) | > 32 µg/mL
CC(=O)NC[C@H]1CN(c2ccc(-c3ccc(C(C)=O)cc3)cn2)C(=O)O1 [Example 41] | 2 µg/mL (≈ 5.66 µM) | 4 µg/mL (≈ 11.3 µM) | > 32 µg/mL | > 32 µg/mL | 1 µg/mL (≈ 2.83 µM) | 4 µg/mL (≈ 11.3 µM) | > 32 µg/mL
CC(=O)NC[C@H]1CN(c2ccc(-c3cccc(C(C)=O)c3)cn2)C(=O)O1 [Example 42] | 4 µg/mL (≈ 11.3 µM) | 4 µg/mL (≈ 11.3 µM) | > 64 µg/mL | > 64 µg/mL | 4 µg/mL (≈ 11.3 µM) | 4 µg/mL (≈ 11.3 µM) | 
CC(=O)NC[C@H]1CN(c2ccc(-c3ccc(C(C)=O)s3)cn2)C(=O)O1 [Example 43] | 0.25 µg/mL (≈ 0.696 µM) | 0.5 µg/mL (≈ 1.39 µM) | > 32 µg/mL | > 32 µg/mL | 0.25 µg/mL (≈ 0.696 µM) | 0.5 µg/mL (≈ 1.39 µM) | > 32 µg/mL
CC(=O)NC[C@H]1CN(c2ccc(-c3csc(C=O)c3)cn2)C(=O)O1 [Example 44] | 2 µg/mL (≈ 5.79 µM) | 4 µg/mL (≈ 11.6 µM) | > 32 µg/mL | > 32 µg/mL | 2 µg/mL (≈ 5.79 µM) | 2 µg/mL (≈ 5.79 µM) | > 32 µg/mL
CC(=O)NC[C@H]1CN(c2ccc(-c3ccc(F)c(Cl)c3)cn2)C(=O)O1 [Example 46] | 8 µg/mL (≈ 22 µM) | 2 µg/mL (≈ 5.5 µM) | > 64 µg/mL | > 64 µg/mL | 2 µg/mL (≈ 5.5 µM) | 4 µg/mL (≈ 11 µM) | > 64 µg/mL
CC(=O)NC[C@H]1CN(c2ccc(-c3ccc(F)cc3)cn2)C(=O)O1 [Example 47] | 4 µg/mL (≈ 12.1 µM) | 2 µg/mL (≈ 6.07 µM) | > 64 µg/mL | > 64 µg/mL | 1 µg/mL (≈ 3.04 µM) | 1 µg/mL (≈ 3.04 µM) | > 64 µg/mL
CC(=O)NC[C@H]1CN(c2ccc(-c3cccc([N+](=O)[O-])c3)cn2)C(=O)O1 [Example 48] | 4 µg/mL (≈ 11.2 µM) | 2 µg/mL (≈ 5.61 µM) | > 64 µg/mL | > 64 µg/mL | 1 µg/mL (≈ 2.81 µM) | 2 µg/mL (≈ 5.61 µM) | > 64 µg/mL
CC(=O)NC[C@H]1CN(c2ccc3cccc(-c4ccc(C)cc4)c3n2)C(=O)O1 [Example 59] | 1 µg/mL (≈ 2.66 µM) | 2 µg/mL (≈ 5.33 µM) | > 32 µg/mL | > 32 µg/mL | 1 µg/mL (≈ 2.66 µM) | 1 µg/mL (≈ 2.66 µM) | > 32 µg/mL
